These results are taken from PMC10223992, “In Silico-Motivated Discovery of Novel Potent Glycogen Synthase-3 Inhibitors: 1-(Alkyl/arylamino)-3H-naphtho[1,2,3-de]quinoline-2,7-dione Identified as a Scaffold for Kinase Inhibitor Development” (Pharmaceuticals, 2023).

What all share (format): biochemical
One assay deals with ERK2 (Homo sapiens, UniProt P28482). Put plainly: kinase selectivity screening, ERK2. As to the method: (§1) All predicted inhibitors for testing (except compound 3) were purchased from Vitas-M Laboratory, with purity ≥ 90%. Compound 3 was purchased from Biosynth Carbosynth with purity of 95%. Binding assay experiments against Homo sapiens GSK-3β were performed using a specialist service from the MRC Protein Phosphorylation & Ubiquitylation Unit at the University of Dundee (http://www.kinase-screen.mrc.ac.uk/ (accessed on 1 April 2023)). Initial assays underwent single concentration screening at 50 µM concentrations to determine those compounds showing the best inhibitory potential. Inhibitory activities were calculated based on maximal activities measured in the absence of an inhibitor. […] In the kinase selectivity panel screening for 14 and 19, the compounds were assayed at single concentration (50 μM) against CDK2, CDK5, CDK9, ERK1, ERK2, PKA, PKBβ, PKCα, PKCγ, GSK-3α, and GSK-3β. All binding assay experiments were performed in duplicate.

A further assay deals with PKBβ (Homo sapiens, UniProt P31751). Put plainly: kinase selectivity screening, PKBβ. As to the method: as §1
Another assay deals with GSK-3α (Homo sapiens, UniProt P49840). Put plainly: kinase selectivity screening, GSK-3α. To be noted: for % remaining activity (GSK-3α): single-dose profiling 50 μM. Here is the method: as §1
A further assay addresses T1, Homo sapiens GSK-3β (Homo sapiens, UniProt P49841).
T1 construct: purchased MRC Protein Phosphorylation & Ubiquitylation Unit, University of Dundee (screening service)
Put plainly: in vitro GSK-3β binding assay (kinase inhibition, MRC PPU Dundee). As to conditions: for IC50: in vitro binding assay, duplicate; for % remaining activity (GSK-3β): single-dose profiling 50 μM. As to the method: as §1

The target of the next assay is PKCγ (Homo sapiens, UniProt P05129). As to the kind of experiment: kinase selectivity screening, PKCγ. Here is the method: as §1

The IC50 is the concentration needed to halve the response being measured. A high value points to weaker potency.

Where “and” joins values, the source holds several entries; their conditions need not be identical. Equal entries are not always repeated.

Sequence of GSK-3α (P49840 whole entry, species assumed): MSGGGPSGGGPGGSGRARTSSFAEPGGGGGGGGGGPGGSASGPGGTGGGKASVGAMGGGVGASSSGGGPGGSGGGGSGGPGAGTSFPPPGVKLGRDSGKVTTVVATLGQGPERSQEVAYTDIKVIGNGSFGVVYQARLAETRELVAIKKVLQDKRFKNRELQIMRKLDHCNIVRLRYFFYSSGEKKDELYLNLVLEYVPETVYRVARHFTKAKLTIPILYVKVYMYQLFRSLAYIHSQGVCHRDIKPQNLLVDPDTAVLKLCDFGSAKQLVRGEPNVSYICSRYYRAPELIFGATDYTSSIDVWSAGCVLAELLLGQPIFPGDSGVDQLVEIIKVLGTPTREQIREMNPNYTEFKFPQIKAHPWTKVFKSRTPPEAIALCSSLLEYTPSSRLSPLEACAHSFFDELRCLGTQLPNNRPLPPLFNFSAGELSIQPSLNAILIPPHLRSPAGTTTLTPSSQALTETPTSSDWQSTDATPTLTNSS
T1 sequence (P49841 whole entry): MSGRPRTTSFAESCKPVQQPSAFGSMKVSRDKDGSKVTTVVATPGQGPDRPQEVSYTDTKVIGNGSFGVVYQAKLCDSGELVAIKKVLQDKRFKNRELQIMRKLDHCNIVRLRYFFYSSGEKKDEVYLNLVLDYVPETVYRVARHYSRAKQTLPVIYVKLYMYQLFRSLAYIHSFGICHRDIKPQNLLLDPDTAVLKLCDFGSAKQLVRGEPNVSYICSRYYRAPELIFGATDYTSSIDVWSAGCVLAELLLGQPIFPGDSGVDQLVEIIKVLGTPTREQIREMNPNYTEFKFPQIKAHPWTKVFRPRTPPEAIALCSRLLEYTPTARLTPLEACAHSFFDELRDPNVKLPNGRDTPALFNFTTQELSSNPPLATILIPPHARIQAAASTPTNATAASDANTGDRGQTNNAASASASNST
Sequence of PKBβ (P31751 whole entry, species assumed): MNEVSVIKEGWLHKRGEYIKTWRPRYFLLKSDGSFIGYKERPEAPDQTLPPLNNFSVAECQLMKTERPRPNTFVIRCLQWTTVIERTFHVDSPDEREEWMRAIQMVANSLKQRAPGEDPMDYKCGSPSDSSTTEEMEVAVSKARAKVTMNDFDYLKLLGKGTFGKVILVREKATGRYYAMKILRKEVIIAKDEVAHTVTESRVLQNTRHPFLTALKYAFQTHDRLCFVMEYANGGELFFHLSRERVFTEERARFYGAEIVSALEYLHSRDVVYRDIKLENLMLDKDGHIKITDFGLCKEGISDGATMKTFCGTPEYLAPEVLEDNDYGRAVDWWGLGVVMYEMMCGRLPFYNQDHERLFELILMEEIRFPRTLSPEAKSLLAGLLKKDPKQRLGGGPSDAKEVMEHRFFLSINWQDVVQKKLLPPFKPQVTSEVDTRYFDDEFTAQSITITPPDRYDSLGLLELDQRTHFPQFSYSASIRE
Sequence of ERK2 (P28482 whole entry, species assumed): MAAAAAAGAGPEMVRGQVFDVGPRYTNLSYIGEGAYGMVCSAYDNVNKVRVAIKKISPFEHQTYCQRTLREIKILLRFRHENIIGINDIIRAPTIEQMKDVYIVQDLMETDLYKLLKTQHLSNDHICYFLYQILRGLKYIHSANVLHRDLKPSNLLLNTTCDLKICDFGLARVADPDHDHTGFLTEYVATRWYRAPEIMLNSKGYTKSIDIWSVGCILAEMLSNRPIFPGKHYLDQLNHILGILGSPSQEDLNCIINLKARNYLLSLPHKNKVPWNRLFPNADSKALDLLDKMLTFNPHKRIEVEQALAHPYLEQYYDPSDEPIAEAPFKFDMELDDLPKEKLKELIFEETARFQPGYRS

`Cc1cc(C)cc(Nc2c3c4c(cccc4[nH]c2=O)C(=O)c2ccccc2-3)c1` [Compound 14]: the IC50 against ERK2 is 21.3 µM; against PKBβ, 14.9 ± 1.5 µM; at GSK-3α, 2.3 ± 0.4 µM; on Homo sapiens GSK-3β, < 10 µM and 9.1 µM. In addition, the “% remaining activity (GSK-3α)” value at GSK-3α was less than 50%. In addition, at Homo sapiens GSK-3β, the “% remaining activity (GSK-3β)” value was less than 50%.

For the compound `CCCCNc1c2c3c(cccc3[nH]c1=O)C(=O)c1ccccc1-2` [Compound 19], the IC50 is 24.6 ± 0.2 µM against PKBβ; 11 ± 1.5 µM against PKCγ; 1.7 ± 0.1 µM at GSK-3α; < 10 µM and 4.9 µM at Homo sapiens GSK-3β. The “% remaining activity (GSK-3α)” value at GSK-3α is given as less than 50%. Besides, the “% remaining activity (GSK-3β)” value on Homo sapiens GSK-3β is less than 50%.
